Key:
Ss-SibL (SibL) [1] = target: T1, Ss-SibL (SibL) (Streptosporangium sibiricum, UniProt C0LTM6); assay: X-ray crystal structure of ternary complex with SAH, […] A; assay type: binding; details: SAH bound; D-/L-3-HK used in crystallization; pH 7.7; substrate site
T1 construct: recombinant His6-tagged (pET-21b), E. coli BL21(DE3), Ni-NTA and gel filtration; homodimer; tag removal not described

Ss-SibL (SibL) [2] = target: T1, Ss-SibL (SibL); assay: X-ray crystal structure of binary complex, […] A; assay type: binding; details: crystals obtained by using SAM, modelled as SAH; pH 7.7; SAM site; also bound in ternary complex 4U1Q
[3] = target: the molecule itself; assay: crystal structure; crystals of apo Ss-SibL, of the binary complex with SAH and of the ternary complex with SAH and 3-HK; sitting-drop vapour diffusion; homodimer seen in the crystal

Nc1c(O)cccc1C(=O)C[C@H](N)C(=O)O [L-3-HK]
X-ray crystal structure of ternary complex with SAH, 2.1 A (Ss-SibL (SibL) [1]): the electron densities clearly indicate that the bound substrate is L-3-HK

Nc1ncnc2c1ncn2[C@@H]1O[C@H](CSCC[C@H](N)C(=O)O)[C@@H](O)[C@H]1O [S-adenosylhomocysteine]
X-ray crystal structure of binary complex, 2.6 A (Ss-SibL (SibL) [2]): the binary Ss-SibL/SAH and the ternary Ss-SibL/SAH/3HK complex crystals diffracted to higher resolution

B1: Streptosporangium sibiricum SibL (enzyme)
chain: MSSELSALVPVLFGHAAFQQLNAGCQLGLFELLHERGPLSAEEVADALRLPRRSADILLLGTTALGLSTVTDGGYRNGAPIGAAFRDGLWPVLRDIVQYQDKIAYQPAADYVESLRTGQNAGIRHFPGTTRDLYSRLAAVPGLEELFYRGMHAWSQLSNPVLLAQPDFTRVHRVLDVGGGDAVNAVALARAHPSLRVTVLDRPGALEVARKTIAEAGLEERVRTHAADIFTDSYPAGHDCVLFAHQLVIWSPEQNLTLLRKAYDAVEPGGRVLVFNAFTDDDRTGPLYAALDNVYFTTLPFRHSTIHRWADCESWLREAGFTDVGRTAPPGWTPHGVVSGSRPR
notes: SibL, SAM-dependent 3-hydroxykynurenine C-methyltransferase of Streptosporangium sibiricum; amplified by PCR from S. sibiricum genomic DNA and cloned into pET-21b; Homodimer in the crystals; The ternary complex was first phased with selenomethionine-substituted protein; also called Ss-SibL; 3-hydroxykynurenine C-methyltransferase; source: E. coli BL21 (DE3), purified (Ni-NTA, Superdex-200 size …)
stoichiometry N [3]: 2

From PMC4426599, “Structure and mechanism of an antibiotics-synthesizing 3-hydroxykynurenine C-methyltransferase” (Scientific Reports, 2015)
